In patent publication US8207155B2, “Sulfonyl-azetidin-3-yl-methylamine amide analogs as GlyTl inhibitors, methods for making same, and use of same in treating psychiatric disorders” (Vanderbilt University, priority 2009, dated 2012):
Where two headings read alike, the source gives them in different places.

Target: T1, GlyT1 (Homo sapiens, UniProt P48067)
T1 construct: Human placental choriocarcinoma cells endogenously expressing GlyT1; endogenous in cells; host or cells: JAR human placental choriocarcinoma cells
T1 sequence (P48067 1-706): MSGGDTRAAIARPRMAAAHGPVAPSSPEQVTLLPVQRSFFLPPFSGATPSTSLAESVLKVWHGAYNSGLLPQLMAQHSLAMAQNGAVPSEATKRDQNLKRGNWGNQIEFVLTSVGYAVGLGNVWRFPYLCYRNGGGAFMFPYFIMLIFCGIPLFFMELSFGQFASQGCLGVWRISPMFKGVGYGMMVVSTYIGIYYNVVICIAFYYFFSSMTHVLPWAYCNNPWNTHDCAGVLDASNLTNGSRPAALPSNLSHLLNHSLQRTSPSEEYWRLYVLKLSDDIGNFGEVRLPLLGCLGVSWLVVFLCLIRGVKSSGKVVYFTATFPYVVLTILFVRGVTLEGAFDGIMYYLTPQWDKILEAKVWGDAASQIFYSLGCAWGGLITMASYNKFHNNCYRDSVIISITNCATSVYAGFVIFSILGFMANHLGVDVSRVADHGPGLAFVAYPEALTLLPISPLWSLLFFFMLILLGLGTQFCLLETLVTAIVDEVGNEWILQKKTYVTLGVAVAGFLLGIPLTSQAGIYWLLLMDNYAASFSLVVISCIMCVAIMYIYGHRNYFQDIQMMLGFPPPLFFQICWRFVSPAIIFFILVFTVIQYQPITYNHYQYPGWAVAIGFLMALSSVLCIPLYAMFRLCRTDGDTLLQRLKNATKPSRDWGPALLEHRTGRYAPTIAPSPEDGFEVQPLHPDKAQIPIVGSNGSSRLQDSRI
Experiment: GlyT1 [14C]-glycine uptake inhibition in human placental choriocarcinoma (JAR) cells
Assay type: cell-based
Conditions: inhibition of specific [14C]-glycine uptake, cells endogenously expressing GlyT1, read-out: Potency (IC50)
Experimental: Human placental choriocarcinoma cells endogenously expressing GlyT1 can be cultured using standard conditions. Cells can then be grown at 37° C. in a humidified atmosphere 40-48 hours before the assay. Culture medium can be removed from the culture plate, and cells can be incubated with an amount of TB1A buffer with or without the compounds of the present invention for a sufficient period of time. Then an amount of [^14C]-glycine diluted with TB1A can be added to each well. After incubation the microplates can be sealed and counted. Non-specific uptake of [^14C]-glycine can be determined in the presence of unlabeled glycine. To determine potencies, a range of concentrations of the compounds of the present invention can be added to the cells, followed by the fixed concentration of [^14C]-glycine. The concentration of the present compound that inhibited half of the specific uptake of [^14C]glycine (IC50 value) can be determined from the assay data by non-linear curve fitting.

SMILES | IC50 (values in nM) [nM] | other results
CCCS(=O)(=O)N1CC(C(NC(=O)c2ccc(Cl)cc2Cl)c2ccccc2)C1 (centres unmarked) [Compound 3a, 2,4-dichloro-N-(phenyl(1-(propylsulfonyl)azetidin-3-yl)methyl)benzamide] | 730 | –
Cn1cnc(S(=O)(=O)N2CC(C(NC(=O)c3cc(Cl)cc(Cl)c3)c3ccccc3)C2)c1 (centres unmarked) [Compound 9j] | – | IC50 (values given in μM): 1500 nM
Cn1cnc(S(=O)(=O)N2CC(C(NC(=O)c3ccc(Cl)cc3Cl)c3ccccc3)C2)c1 (centres unmarked) [Compound 3b, 2,4-dichloro-N-((1(1-methyl-1H-imidazol-4-ylsulfonyl)azetidin-3-yl)(phenyl)methyl)benzamide] | 39 | –
Cn1cnc(S(=O)(=O)N2CC(C(NC(=O)c3ccccc3F)c3ccccc3)C2)c1 (centres unmarked) [Compound 9e] | – | IC50 (values given in μM): 1100 nM
Cn1cnc(S(=O)(=O)N2CC(C(NC(=O)c3cccnc3Cl)c3ccccc3)C2)c1 (centres unmarked) [Compound 9k] | 718 | –
Cn1cnc(S(=O)(=O)N2CC(C(NC(=O)c3ccc(F)cc3F)c3ccccc3)C2)c1 (centres unmarked) [Compound 9h] | 454 | –
Cn1cnc(S(=O)(=O)N2CC(C(NC(=O)c3ccc(Cl)cc3)c3ccccc3)C2)c1 (centres unmarked) [Compound 9b] | 334 | –
Cn1cnc(S(=O)(=O)N2CC(C(NC(=O)c3ccc(F)c(F)c3)c3ccccc3)C2)c1 (centres unmarked) [Compound 9i] | – | IC50 (values given in μM): 1000 nM
Cn1cnc(S(=O)(=O)N2CC(C(NC(=O)c3ccc(F)cc3)c3ccccc3)C2)c1 (centres unmarked) [Compound 9d] | – | IC50 (values given in μM): > 10000 nM
Cn1cnc(S(=O)(=O)N2CC(C(NC(=O)c3ccc(Cl)cc3Cl)c3ccccc3)C2)c1 (single isomer, unassigned) [Compound 3b-2, 2,4-dichloro-N-((1(1-methyl-1H-imidazol-4-ylsulfonyl)azetidin-3-yl)(phenyl)methyl)benzamide] | 627 | –
CCCS(=O)(=O)N1CC(C(NC(=O)c2ccc(Cl)cc2Cl)c2ccccc2)C1 (single isomer, unassigned) [Compound 3a-2, 2,4-dichloro-N-(phenyl(1-(propylsulfonyl)azetidin-3-yl)methyl)benzamide] | 627 | –
Cn1cnc(S(=O)(=O)N2CC(C(NC(=O)c3ccccc3Cl)c3ccccc3)C2)c1 (centres unmarked) [Compound 9a] | 133 | –
Cn1cnc(S(=O)(=O)N2CC(C(NC(=O)c3ccc(Cl)cc3Cl)C3CCCC3)C2)c1 (centres unmarked) [Compound 10e] | – | IC50 (values given in μM): 1600 nM
CCCS(=O)(=O)N1CC(C(NC(=O)c2ccc(Cl)cc2Cl)c2ccccc2)C1 (single isomer, unassigned) [Compound 3a-1, 2,4-dichloro-N-(phenyl(1-(propylsulfonyl)azetidin-3-yl)methyl)benzamide] | – | IC50 (values given in μM): > 10000 nM
Cn1cnc(S(=O)(=O)N2CC(C(NC(=O)c3c(F)cccc3F)c3ccccc3)C2)c1 (centres unmarked) [Compound 9f] | 439 | –
Cn1cnc(S(=O)(=O)N2CC(C(NC(=O)c3ccc(Cl)c(Cl)c3)c3ccccc3)C2)c1 (centres unmarked) [Compound 9c] | 446 | –
Cn1cnc(S(=O)(=O)N2CC(C(NC(=O)c3ccccc3C(F)(F)F)c3ccccc3)C2)c1 (centres unmarked) [Compound 9g] | 101 | –
Cn1cnc(S(=O)(=O)N2CC(C(NC(=O)c3ccc(Cl)cc3Cl)c3ccccc3)C2)c1 (single isomer, unassigned) [Compound 3b-1, 2,4-dichloro-N-((1(1-methyl-1H-imidazol-4-ylsulfonyl)azetidin-3-yl)(phenyl)methyl)benzamide] | – | IC50 (value printed in pM): 0.029 nM

The next lines start with results.

IC50 (values in nM) [nM] | SMILES | other results
356 | Cn1cnc(S(=O)(=O)N2CC(C(NC(=O)c3ccccc3Cl)c3ccccn3)C2)c1 (centres unmarked) [Compound 10g] | –
581 | CC(C)CC(NC(=O)c1ccc(Cl)cc1Cl)C1CN(S(=O)(=O)c2cn(C)cn2)C1 (centres unmarked) [Compound 10f] | –
940 | Cn1cnc(S(=O)(=O)N2CC(C(NC(=O)c3ccc(Cl)cc3)c3ccccn3)C2)c1 (centres unmarked) [Compound 10i] | –
253 | Cn1cnc(S(=O)(=O)N2CC(C(NC(=O)c3ccc(Cl)cc3Cl)C3CC3)C2)c1 (centres unmarked) [Compound 10d] | –
394 | CC(C)C(NC(=O)c1ccc(Cl)cc1Cl)C1CN(S(=O)(=O)c2cn(C)cn2)C1 (centres unmarked) [Compound 10a] | –
185 | CCCC(NC(=O)c1ccc(Cl)cc1Cl)C1CN(S(=O)(=O)c2cn(C)cn2)C1 (centres unmarked) [Compound 10b] | –
40 | Cn1cnc(S(=O)(=O)N2CC(C(NC(=O)c3ccc(Cl)cc3Cl)c3cccs3)C2)c1 (centres unmarked) [Compound 10c] | –
256 | Cn1cnc(S(=O)(=O)N2CC(C(NC(=O)c3ccccc3C(F)(F)F)c3ccccn3)C2)c1 (centres unmarked) [Compound 10h] | –
